This is an account of results in US5368707A, “Convenient determination of trace lead in whole blood and other fluids” (priority 1993, dated 1994).

What all share (format): biochemical, pig
Test [1] deals with T1, isocitrate dehydrogenase (Sus scrofa, UniProt P33198).
T1 construct: purchased Sigma, St. Louis, Mo; ICD Type VI
T1 sequence (P33198 9-421): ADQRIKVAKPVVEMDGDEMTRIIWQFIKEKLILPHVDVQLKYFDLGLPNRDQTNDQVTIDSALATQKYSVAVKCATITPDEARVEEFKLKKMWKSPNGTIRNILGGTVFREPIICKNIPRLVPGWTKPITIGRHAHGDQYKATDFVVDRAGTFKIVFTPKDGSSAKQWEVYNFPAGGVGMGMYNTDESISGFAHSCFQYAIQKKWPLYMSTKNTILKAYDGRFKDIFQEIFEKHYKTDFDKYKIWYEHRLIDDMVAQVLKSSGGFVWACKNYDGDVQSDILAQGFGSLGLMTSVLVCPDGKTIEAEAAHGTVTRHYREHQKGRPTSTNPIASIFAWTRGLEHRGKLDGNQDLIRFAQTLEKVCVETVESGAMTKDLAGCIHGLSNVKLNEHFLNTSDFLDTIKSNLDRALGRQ
Description: Amperometric lead inhibition of ICDH in homogeneous aqueous solution (Example 1). The note with it: pH 8.5 Tris; for Current: 0 V. On the procedure: Pig heart NADP-linked isocitric dehydrogenase (ICD, EC 1.1.1.42), an oxidoreductase, is sensitive to trace levels of lead ion as low as 1 μg/dl. […] In fact, at low concentrations of activator, e.g., <200 ppb Mn^++, the activity of ICD is proportional to Mn^++ and may be used to determine activator concentration (Guilbault, 1970). Inactivation by inhibitors is useful for determining inhibitor concentration. Specificity of enzymes for activators, or inhibitors, is not as great as for the natural substrate of the enzyme, but in some cases inhibitor concentration may be selectively determined. Silver and mercury have been determined in the presence of each other using isocitrate dehydrogenase (Mealor and Townshend, 1968). However, until now, there has been no satisfactory rapid amperometric method to determine lead ion based on ICD inhibition, much less a simple method to determine low lead ion concentrations in whole blood.
The following example illustrates determination of trace amounts of lead ion in aqueous medium through the inhibition of isocitrate dehydrogenase (ICDH) in homogeneous solution.
Commercially available ICDH (Sigma Chemical Company, St. Louis, Mo.) typically contains considerable amounts of sulfate that interferes with lead ion inhibition of ICDH. Dialysis of ICDH against low ionic strength phosphate buffer caused loss of its activity, which was restored by addition of Mn^2+.
A glassy carbon rod of 3 mm diameter was wrapped in teflon tubing as working electrode and surrounded with a layer of Pt foil as the counter electrode with a silver wire placed in between as the reference electrode. At least one layer of teflon was inserted between two of the three electrodes. All three electrode surfaces were on the same plane. Tubing was fixed on the top of the coplanar electrode surface with an O-ring, forming a microcell of 100-200 μl in volume.
To the microcell was added in sequence: 100 μl 50 mM pH 8.5 Tris buffer, ca. 0.3-0.4 units ICDH and, after 15 min, 5 μl 25 mM NMP-MS, 5 μl 60 mM NADP. The background current was measured at 0 V. 10 μl of 0.5M isocitrate was added and the current measured again. The difference in the two signals was taken as due to the oxidation of isocitrate catalyzed by ICDH.
To measure lead inhibition of ICDH, lead ion was added to the above solution after addition of ICDH but 15 min prior to the addition of NMP-MS and NADP. The current difference with isocitrate was due to inhibition of ICDH by the added lead. FIG. 3 indicates the sensitivity of the electrode to lead ion concentrations in the submicromolar range.

The target in test [2] is T1, isocitrate dehydrogenase. The experiment in a line: ICDH inhibition by lead in the presence of EDTA with or without CoSO4 (Example 8). The settings on record: 2 mM EDTA; for Inhibition: 2.5 mM CoSO4. An excerpt:
A major problem in the measurement of lead in blood is the interference by various blood proteins and, as in the majority of clinical samples, the presence of excess amounts of EDTA. The inventors have discovered that lead chelated with EDTA is exchangeable with cobalt(II). As shown in this example, lead Pb(II) is displaced from EDTA by cobalt(II) and detected by its inhibition of isocitrate dehydrogenase (ICDH).
Micromolor concentrations of lead were detected by ICDH inhibition in the presence of 2 mM EDTA and 2.5 mM CoSO4.

The target in test [3] is T1, isocitrate dehydrogenase. Description: Effect of temperature on lead inhibition of isocitrate dehydrogenase (Example 9). The note with it: for Inhibition rate: 4 μM lead, 10 nM enzyme, 15 min; for inhibition rates: lead concentration not printed at this place. On the procedure: The activity of isocitrate dehydrogenase and its response is affected by several factors.
A solution of isocitrate dehydrogenase (10 nM) was incubated for 15 min at various temperatures between 18° C. and 37° C. and rate of lead inhibition measured. Inhibition rates increased approximately linearly from about 25% to 85% at a lead concentration of 4 μM (FIG. 5).

By % inhibition is commonly meant how much of the control response was suppressed. By Inhibition is commonly meant the share of the control response that was lost under treatment. As for `[Pb+2]` [lead ion], the “% inhibition” value on isocitrate dehydrogenase [1] (1.89 μM Pb++) is 85.3%; at isocitrate dehydrogenase [1] (90.9 μM Pb++), 98.2%. Besides, the Current at isocitrate dehydrogenase [1] (1.89 μM Pb++) worked out at 218 nA; on isocitrate dehydrogenase [1] (90.9 μM Pb++) it was 26 nA. Further, the Inhibition at isocitrate dehydrogenase [2] (12 μM lead) was determined as 23%; on isocitrate dehydrogenase [2] (36 μM lead), 32%; at isocitrate dehydrogenase [2] (121 μM lead), 47%. Also, the “Inhibition (in words)” value on isocitrate dehydrogenase [2] (absence of CoSO4) is listed as “no inhibition was observed”. Moreover, the values for the Inhibition rate result on isocitrate dehydrogenase [3] (18° C.) and on isocitrate dehydrogenase [3] (37° C.) were “about 25%” and roughly 85%, respectively. Further, the inhibition rates on isocitrate dehydrogenase [3] (18° C.) was 25%; against isocitrate dehydrogenase [3] (37° C.), “about 85%”.
